Reference: US4120893A, “Anionic naphthalene thioureido toluenesulfonic acids” (American Cyanamid Company, priority 1977, dated 1978)
Counter-ions that a name gives are not always drawn.

Assays:
[1] = test system: hereditary angioneurotic edema; details: The New England Journal of Medicine, 286, 808-812 (1972); cited from earlier work
complement system = details: reported in cited literature; cited from earlier work
[2] = test system: whole complement in serum; experiment: Complement Level Reduction Test in dosed guinea pigs (capillary tube assay); assay type: in vivo; details: guinea pig, intraperitoneal, 200 mg/kg
[3] = test system: late components of human complement (C3-C9); experiment: Test, Code 035 (C3-C9 inhibitor), lysis of EAC 142; assay type: cell-based; details: in vitro; two-fold serial dilution assay; higher well number indicates higher activity
Text: (§1) An active inhibitor protects C2 from C1 and C4; (ii) Test, Code 035 (C3-C9 inhibitor)--This test determines the ability of the late components of human complement (C3-C9) to lyse EAC 142 in the presence of appropriate dilutions of the test compound. An active inhibitor protects EAC 142 from lysis by human C3-C9; (iii) Test, Code 036 (C-Shunt inhibitor)--In this test human erythrocytes rendered fragile are lysed in autologous serum via the shunt pathway activated by cobra venom factor in the presence of appropriate dilutions of the test compound. Inhibition of the shunt pathway results in failure of lysis; (iv) Forssman Vasculitis Test--Here, the well known complement dependent lesion, Forssman vasculitis, is produced in guinea pigs by intradermal injection of rabbit anti-Forssman antiserum. […]
(§2) With reference to Table I, guinea pigs weighing about 300 g were dosed intravenously (i.v.) or intraperitoneally (i.p.) with 200 mg/kg of the test compound dissolved in saline and adjusted to pH 7-8. […] Percent inhibition was calculated by comparison with simultaneous controls. […]

activated human C1 = experiment: Test, Code 026 (C1 inhibitor); assay type: biochemical; details: in vitro; two-fold serial dilution assay; higher well number indicates higher activity
Text: as §1, §2

[4] = test system: shunt pathway activated by cobra venom factor; experiment: Test, Code 036 (C-Shunt inhibitor), lysis of human erythrocytes in autologous serum; assay type: cell-based; details: in vitro; two-fold serial dilution assay; higher well number indicates higher activity
Text: as §1, §2

Row | Compound | use in treatment of hereditary angioneurotic edema [1] | anticomplementary effect / inhibition of the complement system (complement system) | further results
1 | Cc1ccc(C(=O)Nc2ccc(S(=O)(=O)O)c3cc(S(=O)(=O)O)cc(S(=O)(=O)O)c23)cc1NC(=O)c1cccc(NC(=O)Nc2cccc(C(=O)Nc3cc(C(=O)Nc4ccc(S(=O)(=O)O)c5cc(S(=O)(=O)O)cc(S(=O)(=O)O)c45)ccc3C)c2)c1 [Suramin] | used with success | competitive inhibitor of the complement system | –
2 | Cc1c(NC(=S)Nc2cc(S(=O)(=O)[O-])cc3cc(S(=O)(=O)[O-])cc(S(=O)(=O)[O-])c23)cc(S(=O)(=O)[O-])cc1NC(=S)Nc1cc(S(=O)(=O)[O-])cc2cc(S(=O)(=O)[O-])cc(S(=O)(=O)[O-])c12.[Na+].[Na+].[Na+].[Na+].[Na+].[Na+].[Na+] [8,8'-[(2-methyl-5-sulfo-1,3-phenylene)bis(2-thioureylene)]di-1,3,6-naphthalenetrisulfonic acid heptasodium salt] | – | – | % change in serum complement level ([2]; 30 minutes): -40%; % change in serum complement level ([2]; 60 minutes): -40%; % change in serum complement level ([2]; 120 minutes): -51%; C-Late 035* Wells [3]: N; C1 026* Wells (activated human C1): +7 Wells; Shunt Inhibition 036* Wells [4]: N
3 | Nc1ccc2cc(S(=O)(=O)O)cc(O)c2c1N=Nc1ccc(NC(=O)Nc2ccc(N=Nc3c(N)ccc4cc(S(=O)(=O)O)cc(O)c34)c(S(=O)(=O)O)c2)cc1S(=O)(=O)O [chlorazol fast pink, 3,3'-ureylenebis-[6-(2-amino-8-hydroxy-6-sulfo-1-naphthylazo)]benzenesulfonic acid, tetrasodium salt] | – | anticomplementary effect | –
4 | NCCCCCC(=O)O [epsilon-aminocaproic acid] | used with success | – | –
5 | heparin | – | anticomplementary effect | –
6 | NC[C@H]1CC[C@H](C(=O)O)CC1 [tranexamic acid] | used with success | – | –
